From BindingDB's records for doi:10.1016/j.bmcl.2007.08.017 (Johnson & Johnson Pharmaceutical Research and Development, 2007) come the findings set out here.

This assay can be described thus: Binding affinity at human histamine H3.

The Ki is the dissociation constant of the complex between target and ligand, obtained from inhibition or displacement. In the case of `CSc1ccc(C2CN(C)Cc3cccc(Oc4ccnc(CN5CCCCC5)c4)c32)cc1` (configuration not stated) [2-methyl-4-(4-(methylthio)phenyl)-5-(2-(piperidin-1-ylmethyl)pyridin-4-yloxy)-1,2,3,4-tetrahydroisoquinoline], the Ki was found to be 265 nM.

As to `CSc1ccc(C2CN(C)Cc3cccc(Oc4cccc(CN5CCCCC5)c4)c32)cc1` (configuration not stated) [2-methyl-4-(4-(methylthio)phenyl)-5-(3-(piperidin-1-ylmethyl)phenoxy)-1,2,3,4-tetrahydroisoquinoline], the affinity corresponds to a Ki of 253 nM.

As to `CSc1ccc(C2CN(C)Cc3cccc(Oc4cncc(CN5CCCCC5)c4)c32)cc1` (configuration not stated) [2-methyl-4-(4-(methylthio)phenyl)-5-(5-(piperidin-1-ylmethyl)pyridin-3-yloxy)-1,2,3,4-tetrahydroisoquinoline], the Ki is 511 nM.

As to `CSc1ccc(C2CN(C)Cc3cc(Oc4ccnc(CN5CCCCC5)c4)ccc32)cc1` (configuration not stated) [2-methyl-4-(4-(methylthio)phenyl)-7-(2-(piperidin-1-ylmethyl)pyridin-4-yloxy)-1,2,3,4-tetrahydroisoquinoline], affinity was put at a Ki of 323 nM.

In turn, `CSc1ccc(C2CN(C)Cc3cc(Oc4nc(CN5CCOCC5)cs4)ccc32)cc1` (configuration not stated) [2-methyl-4-(4-(methylthio)phenyl)-7-(4-(morpholinomethyl)thiazol-2-yloxy)-1,2,3,4-tetrahydroisoquinoline] had a Ki of 201 nM.

`CSc1ccc(C2CN(C)Cc3cc(Oc4ccc(CN5CCCCC5)cc4)ccc32)cc1` (configuration not stated) [2-methyl-4-(4-(methylthio)phenyl)-7-(4-(piperidin-1-ylmethyl)phenoxy)-1,2,3,4-tetrahydroisoquinoline] yielded a Ki of 22.7 nM.

Turning to `CSc1ccc(C2CN(C)Cc3cc(Oc4cc(CN5CCCCC5)ccn4)ccc32)cc1` (configuration not stated) [2-methyl-4-(4-(methylthio)phenyl)-7-(4-(piperidin-1-ylmethyl)pyridin-2-yloxy)-1,2,3,4-tetrahydroisoquinoline], the Ki was 34.3 nM.

For `CSc1ccc(C2CN(C)Cc3cc(Oc4nc(CN5CCCCC5)cs4)ccc32)cc1` (configuration not stated) [2-methyl-4-(4-(methylthio)phenyl)-7-(4-(piperidin-1-ylmethyl)thiazol-2-yloxy)-1,2,3,4-tetrahydroisoquinoline], the affinity, expressed as Ki, was 20.7 nM.

Turning to `CSc1ccc(C2CN(C)Cc3cc(Oc4ccc(CN5CCOCC5)cn4)ccc32)cc1` (configuration not stated) [2-methyl-4-(4-(methylthio)phenyl)-7-(5-(morpholinomethyl)pyridin-2-yloxy)-1,2,3,4-tetrahydroisoquinoline], the Ki worked out at 260 nM.

Turning to `CSc1ccc(C2CN(C)Cc3cc(Oc4ccc(CN5CCCCC5)cn4)ccc32)cc1` (configuration not stated) [2-methyl-4-(4-(methylthio)phenyl)-7-(5-(piperidin-1-ylmethyl)pyridin-2-yloxy)-1,2,3,4-tetrahydroisoquinoline], the affinity corresponds to a Ki of 8.2 nM.

Compound `CSc1ccc(C2CN(C)Cc3cc(Oc4cncc(CN5CCCCC5)c4)ccc32)cc1` (configuration not stated) [2-methyl-4-(4-(methylthio)phenyl)-7-(5-(piperidin-1-ylmethyl)pyridin-3-yloxy)-1,2,3,4-tetrahydroisoquinoline] yielded a Ki of 109 nM.

`CSc1ccc(C2CN(C)Cc3cc(Oc4ncc(CN5CCCCC5)s4)ccc32)cc1` (configuration not stated) [2-methyl-4-(4-(methylthio)phenyl)-7-(5-(piperidin-1-ylmethyl)thiazol-2-yloxy)-1,2,3,4-tetrahydroisoquinoline] showed a Ki of 20.7 nM.

`CSc1ccc(C2CN(C)Cc3cc(Oc4cccc(CN5CCCCC5)n4)ccc32)cc1` (configuration not stated) [2-methyl-4-(4-(methylthio)phenyl)-7-(6-(piperidin-1-ylmethyl)pyridin-2-yloxy)-1,2,3,4-tetrahydroisoquinoline] returned a Ki of 51 nM.

The compound `CSc1ccc(C2CN(C)Cc3cc(Oc4ccc(CN5CCCCC5)nc4)ccc32)cc1` (configuration not stated) [2-methyl-4-(4-(methylthio)phenyl)-7-(6-(piperidin-1-ylmethyl)pyridin-3-yloxy)-1,2,3,4-tetrahydroisoquinoline] showed a Ki of 24.3 nM.

In turn, `COc1ccc(C2CN(C)Cc3cc(OCCCN4CCCCC4)ncc32)cc1` (configuration not stated) [4-(4-methoxyphenyl)-2-methyl-7-(3-(piperidin-1-yl)propoxy)-1,2,3,4-tetrahydro-2,6-naphthyridine] yielded a Ki of 12 nM.

For `CSc1ccc(C2CN(C)Cc3cc(Oc4ccc(CN5CCC(F)CC5)cn4)ccc32)cc1` (configuration not stated) [7-(5-((4-fluoropiperidin-1-yl)methyl)pyridin-2-yloxy)-2-methyl-4-(4-(methylthio)phenyl)-1,2,3,4-tetrahydroisoquinoline], the Ki was determined as 110 nM.

`CN(C)CCC(Oc1ccccc1)c1ccc(OCCCN2CCCCC2)cc1` (configuration not stated) [N,N-dimethyl-3-phenoxy-3-(4-(3-(piperidin-1-yl)propoxy)phenyl)propan-1-amine] registered a Ki of 0.72 nM.
